Test results from US4497822A, “Insecticidal N-benzoyl-N'-phenyl-N'-(R-thio)ureas” (Shell Oil Company, priority 1982, dated 1985).

Tests used:
Aedes aegypti larvae = assay: Insecticidal activity, larvae in treated water (Test 1 (b)), toxicity vs parathion; format: in vivo, mosquito (Aedes aegypti); design: key: Toxicity Index: parathion = 100; 200 = twice as active, 50 = half; conditions: early fourth instar larvae; final mortality when all larvae emerged as adults or died; 50% mortality basis; standard parathion = 100
Method: (§1) The insecticidal and ovicidal activities of the compounds of the invention were assessed employing the pests, Egyptian cotton leafworm (Spodoptera littoralis, S.l.), mosquito (Aedes aegypti, A.a.) and eggs of Spodoptera littoralis, S.l.ov.
(§2) The test methods used for each species are described below. In each case the tests were conducted under normal insectary conditions (28° C.[…]; fluctuating light and humidity).
(§3) In each instance, the toxicity of the compound of the invention was compared to that of a standard pesticide (parathion), its relative toxicity then being expressed in terms of the relationship between the amount of compound of the invention and the amount of the standard pesticide required to produce the same percentage (50%) of mortality in the test insect. By assigning the standard pesticide an arbitrary rating of 100, the toxicities of the compounds of the invention were expressed in terms of the toxicity indices, which compares the toxicity of the compounds of the invention with that of the standard pesticide. That is to say, a test compound having a Toxicity Index of 50 would be half as active, while one having a Toxicity Index of 200 would be twice as active as the standard pesticide.
(b) Aedes aegypti--Several solutions of the test compound of varying concentration were prepared in acetone. 100 microliter quantities were added to 100 milliliters of tap water, the acetone being allowed to evaporate off. Ten early fourth instar larvae were placed in the test solution; after 48 hours the (surviving) larvae were fed with animal feed pellets, and the final percentage mortality assessed when all the larvae had either pupated and emerged as adults or died.

[1] = tested on: eggs of Spodoptera littoralis; assay: Ovicidal activity, sprayed eggs (Test 1 (c)), toxicity vs parathion; format: in vivo, Egyptian cotton leafworm (Spodoptera littoralis); conditions: eggs less than 24 hours old; approximately five days; 50% mortality basis; standard parathion = 100
Method: as §1, §2, §3
(c) Spodoptera littoralis (ovicide)--Solutions as described in (a) above were prepared. Eggs less than 24 hours old were obtained as follows. Adult Spodoptera littoralis were held in large plastic cylinders containing blotting paper on which the moths laid their batches of eggs. Egg batches containing approximately 60-70 eggs were cut from the blotting paper with a 1 cm surround. These were placed, eggs uppermost, on filter paper in the deeper half of 5 cm disposable petri dishes and each batch of eggs was then sprayed with a different test solution or the control solution. The dishes were covered until the control eggs had hatched, approximately five days. The percentage ovicidal mortality was then calculated.

[2] = tested on: Spodoptera littoralis larvae; assay: Insecticidal activity, sprayed diet (Test 1 (a)), toxicity vs parathion; format: in vivo, Egyptian cotton leafworm (Spodoptera littoralis); conditions: second instar larvae; mortality 7 days after spraying; 50% mortality basis; standard parathion = 100
Method: as §1, §2
as §3, with “pesticide.” for “pesticide. That is to say, a test compound having a Toxicity Index of 50 would be half as active, while one having a Toxicity Index of 200 would be twice as active as the standard pesticide.”
(a) Spodoptera littoralis--A solution or suspension of the test compound was made up over a range of concentrations in 10% acetone/water containing 0.025% Triton X100 (as surfactant). These solutions were sprayed using a logarithmic spraying machine onto petri dishes containing a nutritious diet on which the Spodoptera littoralis larvae had been reared. When the spray deposit had dried each dish was infested with 10 second instar larvae. Mortality assessments were made 7 days after spraying.

| Compound | Toxicity Index A.a. (Aedes aegypti larvae) | Toxicity Index S.l.ov. [1] | Toxicity Index S.l. [2] |
| --- | --- | --- | --- |
| O=C(NC(=O)N(Sc1ccc([N+](=O)[O-])cc1[N+](=O)[O-])c1ccc(OC(F)(F)F)cc1)c1ccccc1Cl [Example 2, 2-Chloro-N-[[[4-(trifluoromethoxy)phenyl]-N-[(2,4-dinitrophenyl)thio]amino]carbonyl]benzamide] | 82 | 3300 | 150 |
| Cc1ccccc1SN(C(=O)NC(=O)c1ccccc1Cl)c1ccc(OC(F)(F)F)cc1 [Example 4, 2-Chloro-N-[[[4-(trifluoromethoxy)phenyl]-N-[(2-methylphenyl)thio]amino]carbonyl]benzamide] | 77 | 2200 | 110 |
| O=C(NC(=O)N(Sc1ccccc1[N+](=O)[O-])c1ccc(Cl)cc1)c1c(F)cccc1F [Example 5, N-[[[4-Chlorophenyl]-N-[(2-nitrophenyl)thio]amino]carbonyl]-2,6-difluorobenzamide] | 220 | 0-4 | 90 |
| O=C(NC(=O)N(SC(Cl)(Cl)Cl)c1ccc(C(F)(F)F)cc1)c1c(F)cccc1F [Example 6, 2,6-Difluoro-N-[[[(trichloromethyl)thio]-N-[4-(trifluoromethyl)phenyl]amino]carbonyl]benzamide] | 34 | 400 | 260 |
| O=C(NC(=O)N(SC(Cl)(Cl)Cl)c1ccc(Oc2ccc(C(F)(F)F)cc2Cl)cc1)c1ccccc1Cl [Example 7, 2-Chloro-N-[[[4-[2-chloro-4-(trifluoromethyl)phenoxy]phenyl]-N-[(trichloromethyl)thio]amino]carbonyl]benzamide] | 55 | 0 | 1800 |
| O=C(NC(=O)N(Sc1ccccc1)c1ccc(Cl)cc1)c1c(F)cccc1F [Example 8] | 22 | 480 | 16 |
| Cc1ccccc1SN(C(=O)NC(=O)c1c(F)cccc1F)c1ccc(Cl)cc1 [Example 9] | 31 | 1400 | 43 |
| Cc1cccc(SN(C(=O)NC(=O)c2c(F)cccc2F)c2ccc(Cl)cc2)c1 [Example 10] | 24 | 1400 | 20 |
| Cc1ccc(SN(C(=O)NC(=O)c2c(F)cccc2F)c2ccc(Cl)cc2)cc1 [Example 11] | 25 | 680 | 23 |
| O=C(NC(=O)N(Sc1ccc(Cl)cc1)c1ccc(Cl)cc1)c1c(F)cccc1F [Example 12] | 14 |  | 17 |
| O=C(NC(=O)N(Sc1ccc([N+](=O)[O-])cc1[N+](=O)[O-])c1ccc(Cl)cc1)c1c(F)cccc1F [Example 13] | 100 | 1800 | 35 |
| O=C(NC(=O)N(SC(Cl)(Cl)Cl)c1ccc(Cl)cc1)c1c(F)cccc1F [Example 14] | 6 | 560 | 10 |
| O=C(NC(=O)N(Sc1ccccc1)c1ccc(C(F)(F)F)cc1)c1c(F)cccc1F [Example 15] | 50 | 1800 | 170 |
| Cc1ccccc1SN(C(=O)NC(=O)c1c(F)cccc1F)c1ccc(C(F)(F)F)cc1 [Example 16] |  | 2700 | 550 |
| Cc1cccc(SN(C(=O)NC(=O)c2c(F)cccc2F)c2ccc(C(F)(F)F)cc2)c1 [Example 17] | 160 | 2800 | 260 |
| Cc1ccc(SN(C(=O)NC(=O)c2c(F)cccc2F)c2ccc(C(F)(F)F)cc2)cc1 [Example 18] | 170 | 2300 | 300 |
| O=C(NC(=O)N(Sc1ccc(Br)cc1)c1ccc(C(F)(F)F)cc1)c1c(F)cccc1F [Example 19] | 10 | 1500 | 240 |
| O=C(NC(=O)N(Sc1ccccc1[N+](=O)[O-])c1ccc(C(F)(F)F)cc1)c1c(F)cccc1F [Example 20] | 180 | 1800 | 160 |

| Compound | Toxicity Index A.a. (Aedes aegypti larvae) | Toxicity Index S.l.ov. [1] | Toxicity Index S.l. [2] |
| --- | --- | --- | --- |
| O=C(NC(=O)N(Sc1ccc([N+](=O)[O-])cc1)c1ccc(C(F)(F)F)cc1)c1c(F)cccc1F [Example 21] | 13 |  | 96 |
| O=C(NC(=O)N(Sc1ccc([N+](=O)[O-])cc1[N+](=O)[O-])c1ccc(C(F)(F)F)cc1)c1c(F)cccc1F [Example 22] | 51 | 2300 | 220 |
| Cc1ccc(SN(C(=O)NC(=O)c2ccccc2Cl)c2ccc(OC(F)(F)F)cc2)cc1 [Example 23] | 145 | 1500 | 140 |
| O=C(NC(=O)N(Sc1ccc([N+](=O)[O-])cc1)c1ccc(OC(F)(F)F)cc1)c1ccccc1Cl [Example 24] | 31 | 11 | 54 |
| O=C(NC(=O)N(SC(Cl)(Cl)Cl)c1ccc(OC(F)(F)F)cc1)c1ccccc1Cl [Example 25] | 28 | 1300 | 140 |
| CC(C)(C)c1ccc(SN(C(=O)NC(=O)c2c(F)cccc2F)c2ccc(C(F)(F)F)cc2)cc1 [Example 26] | 82 | 8 | 580 |
| O=C(NC(=O)N(Sc1ccc(Cl)cc1)c1ccc(C(F)(F)F)cc1)c1c(F)cccc1F [Example 27] | 21 | 2200 | 220 |
| O=C(NC(=O)N(Sc1ccc([N+](=O)[O-])cc1)c1ccc(Cl)cc1)c1c(F)cccc1F [Example 28] | 6 | 720 | 54 |
| O=C(NC(=O)N(Sc1ccccc1)c1ccc(Oc2ccc(C(F)(F)F)cc2Cl)cc1)c1ccccc1Cl [Example 29] | 330 | 0 | 930 |
| O=C(NC(=O)N(Sc1ccc(Cl)cc1)c1ccc(Oc2ccc(C(F)(F)F)cc2Cl)cc1)c1ccccc1Cl [Example 30] | 220 | 0 | 670 |
| Cc1ccccc1SN(C(=O)NC(=O)c1ccccc1Cl)c1ccc(Oc2ccc(C(F)(F)F)cc2Cl)cc1 [Example 31] | 240 | 0 | 960 |
| CC(C)c1ccccc1SN(C(=O)NC(=O)c1ccccc1Cl)c1ccc(OC(F)(F)F)cc1 [Example 32] | 28 | 2000 | 88 |
| O=C(NC(=O)N(Sc1ccc(Cl)cc1)c1ccc(OC(F)(F)F)cc1)c1ccccc1Cl [Example 33] | 44 | 1300 | 57 |
| Cc1ccc(SN(C(=O)NC(=O)c2ccccc2Cl)c2ccc(Oc3ccc(C(F)(F)F)cc3Cl)cc2)cc1 [Example 34] | 130 | 0 | 1200 |
| O=C(NC(=O)N(Sc1ccccc1[N+](=O)[O-])c1ccc(Oc2ccc(C(F)(F)F)cc2Cl)cc1)c1ccccc1Cl [Example 35] | 82 | 0 | 2500 |
| CC(C)(C)c1ccc(SN(C(=O)NC(=O)c2c(F)cccc2F)c2ccc(Cl)cc2)cc1 [Example 36] | 22 | 0 | 42 |
| O=C(NC(=O)N(Sc1ccc(Br)cc1)c1ccc(Cl)cc1)c1c(F)cccc1F [Example 37] | 26 | 850 | 51 |
